Experimental data published in patent US6515140B2, “Fused pyrrolecarboxamides; a new class of GABA brain receptor ligands” (Neurogen Corporation, priority 1996, dated 2003).

Legend:
[1] = molecular target: GABAa receptor; assay: GABAa receptor binding assay (3H-RO15-1788 displacement); conditions: rat cortical tissue homogenate; radioligand 0.5 nM 3H-RO15-1788 [3H-Flumazenil]; 30 min at 4° C.
Protocol: The pharmaceutical utility of compounds of this invention are indicated by the following assay for GABAa receptor binding activity.
Assays are carried out as described in Thomas and Tallman (J. Bio. Chem. 156:9838-9842 , J. Neurosci. 3:433-440, 1983). Rat cortical tissue is dissected and homogenized in 25 volumes (w/v) of 0.05 M Tris HCl buffer (pH 7.4 at 4° C.). The tissue homogenate is centrifuged in the cold (4°) at 20,000×g for 20′. The supernatant is decanted and the pellet is rehomogenized in the same volume of buffer and again centrifuged at 20,000×g. The supernatant is decanted and the pellet is frozen at −20° C. overnight. The pellet is then thawed and rehomogenized in 25 volume (original wt/vol) of buffer and the procedure is carried out twice. The pellet is finally resuspended in 50 volumes (w/vol of 0.05 M Tris HCl buffer (pH 7.4 at […]).
Incubations contain […] of tissue homogenate, […] of radioligand 0.5 nM (^3H-RO15-1788 [^3H-Flumazenil] specific activity 80 Ci/mmol), drug or blocker and buffer to a total volume of […]. Incubations are carried for 30 min at 4° C. then are rapidly filtered through GFB filters to separate free and bound ligand. Filters are washed twice with fresh 0.05 M Tris HCl buffer (pH 7.4 at 4° C.) and counted in a liquid scintillation counter. […] diazepam is added to some tubes to determine nonspecific binding. Data are collected in triplicate determinations, averaged and % inhibition of total specific binding is calculated. Total Specific Binding=Total−Nonspecific. In some cases, the amounts of unlabeled drugs is varied and total displacement curves of binding are carried out.

Row | SMILES | Ki [1] [nM] | melting point
1 | O=C(Nc1ccc2c(c1)OCCO2)c1c[nH]c2c1C(=O)CCCC2 [Compound 12, N-(2,3-Dihydro-1,4-benzodioxin-6-yl)-4-oxo-1,4,5,6,7,8-hexahydro-cyclohepta[b]pyrrole-3-carboxamide] | 5 | 222 to 223 °C
2 | O=C(Nc1ccc2c(c1)OCO2)c1c[nH]c2c1C(=O)CCC2 [Compound 10, N-(1,3-Benzodioxol-5-yl)-4-oxo-4,5,6,7-tetrahydro-1H-indole-3-carboxamide] | 37 | 248 to 249 °C
3 | CNCc1cccc(NC(=O)c2c[nH]c3c2C(=O)CCC3)c1 [Compound 1, N-[3-(Methylaminomethyl)phenyl]-4-oxo-4,5,6,7-tetrahydro-1H-indole-3-carboxamide] | 90 | 130 to 132 °C
4 | CC1(C)CC(=O)c2c(C(=O)Nc3cccc(CO)c3)c[nH]c2C1 [Compound 8, N-[3-(Hydroxymethyl)phenyl]-4-oxo-6,6-dimethyl-4,5,6,7-tetrahydro-1H-indole-3-carboxamide] | 27 | 233 to 235 °C
5 | COCCOc1ccc(NC(=O)c2c[nH]c3c2C(=O)CCC3)cc1 [Compound 2, N-[4-(Methoxyethoxy)phenyl]-4-oxo-4,5,6,7-tetrahydro-1H-indole-3-carboxamide] | 29 | –
6 | CNCc1ccc(NC(=O)c2c[nH]c3c2C(=O)CCCC3)cc1 [Compound 7] | 30 | 173 to 175 °C
7 | CC1CC(=O)c2c(C(=O)Nc3ccc(OCCO)cc3)c[nH]c2C1 (centres unmarked) [Compound 9, N-[4-(2-Hydroxyethoxy)phenyl]-4-oxo-6-methyl-4,5,6,7-tetrahydro-1H-indole-3-carboxamide] | 1.3 | 245 to 247 °C
8 | O=C(Nc1ccc(OCCO)nc1)c1c[nH]c2c1C(=O)CCC2 [Compound 14] | 3 | –
9 | CNCc1ccc(NC(=O)c2c[nH]c3c2C(=O)CCC3)c(F)c1 [Compound 3, N-[2-Fluoro-4-(methylaminomethyl)phenyl]-4-oxo-4,5,6,7-tetrahydro-1H-indole-3-carboxamide] | 49 | 186 to 188 °C
10 | CNCCc1ccc(NC(=O)c2c[nH]c3c2C(=O)CCC3)cc1 [Compound 4, N-[4-(2-Methylaminoethyl)phenyl]-4-oxo-4,5,6,7-tetrahydro-1H-indole-3-carboxamide] | 0.24 | 197 to 200 °C
11 | CCCNCCOc1ccc(NC(=O)c2c[nH]c3c2C(=O)CCC3)cc1 [Compound 64, N-[4-(2-n-Propylaminoethoxy)phenyl]-4-oxo-4,5,6,7-tetrahydro-1H-indole-3-carboxamide] | – | 130 to 133 °C
12 | O=C(Nc1ccc2c(c1)CCN2)c1c[nH]c2c1C(=O)CCC2 [Compound 35, N-(2,3-Dihydro-1H-indol-5-yl)4-oxo-4,5,6,7-tetrahydro-1H-indole-3-carboxamide] | – | 283 to 286 °C
13 | NCc1ccc(NC(=O)c2c[nH]c3c2C(=O)CCC3)cc1 [Compound 6, N-[4-(Aminomethyl)phenyl]-4-oxo-4,5,6,7-tetrahydro-1H-indole-3-carboxamide] | 9 | > 200 °C (dec.)
14 | Cl.O=C(Nc1cnccc1OCCN1CCCC1)c1c[nH]c2c1C(=O)CCC2 | – | 188 to 245 °C (dec.)
15 | Cl.O=C(Nc1cnccc1OCCNCc1ccccc1)c1c[nH]c2c1C(=O)CCC2 | – | 143 to 145 °C
16 | CCNCCOc1ccc(NC(=O)c2c[nH]c3c2C(=O)CCC3)cc1 [Compound 62, N-[4-(2-Ethylaminoethoxy)phenyl]-4-oxo-4,5,6,7-tetrahydro-1H-indole-3-carboxamide] | – | 140 to 141 °C
17 | CN(C)CCOc1ccncc1NC(=O)c1c[nH]c2c1C(=O)CCC2 [Compound 122, N-[4-(2-Dimethylaminoethoxy)pyrid-3-yl]-4-oxo-4,5,6,7-tetrahydro-1H-indole-3-carboxamide] | – | 163 to 166 °C
18 | O=C(Nc1ccc2c(c1)NCC2)c1c[nH]c2c1C(=O)CCC2 [Compound 13, N-(2,3-Dihydro-1H-indol-6-yl)-4-oxo-4,5,6,7-tetrahydro-1H-indole-3-carboxamide] | 24 | 322 to 323 °C

Row | SMILES | Ki [1] [nM] | melting point
19 | O=C(Nc1ccc(CNC2CC2)cc1)c1c[nH]c2c1C(=O)CCC2 [Compound 5, N-[4-(Cyclopropylaminomethyl)phenyl]-4-oxo-4,5,6,7-tetrahydro-1H-indole-3-carboxamide] | 9 | 171 to 173 °C
20 | CC1(C)CC(=O)c2c(C(=O)Nc3ccc(CO)cc3)c[nH]c2C1 [Compound 31, N-[4-(Hydroxymethyl)phenyl]-4-oxo-6,6-dimethyl-4,5,6,7-tetrahydro-1H-indole-3-carboxamide] | – | 245 to 247 °C
21 | CNCc1ccc(NC(=O)c2c[nH]c3c2C(=O)CC(C)C3)cc1 (centres unmarked) [Compound 27, N-[4-(Methylaminomethyl)phenyl]-4-oxo-6-methyl-4,5,6,7-tetrahydro-1H-indole-3-carboxamide] | – | 217 to 219 °C
22 | CC(C)(C)NCCOc1ccc(NC(=O)c2c[nH]c3c2C(=O)CCC3)cc1 [Compound 81, N-[4-(2-t-Butylaminoethoxy)phenyl]-4-oxo-4,5,6,7-tetrahydro-1H-indole-3-carboxamide] | – | 290 to 292 °C
23 | CC1(C)CCc2[nH]cc(C(=O)Nc3ccc4c(c3)OCCO4)c2C1=O [Compound 37, N-(2,3-Dihydro-1,4-benzodioxin-6-yl)-4-oxo-5,5-dimethyl-4,5,6,7-tetrahydro-1H-indole-3-carboxamide] | – | 241 to 243 °C
24 | O=C(Nc1ccc2c(c1)OCCO2)c1c[nH]c2c1C(=O)CCC2 [Compound 11, N-(2,3-Dihydro-1,4-benzodioxin-6-yl)-4-oxo-4,5,6,7-tetrahydro-1H-indole-3-carboxamide] | 7 | 254 to 256 °C
25 | CC(C)NCCOc1ccncc1NC(=O)c1c[nH]c2c1C(=O)CCC2.Cl | – | 167 to 169 °C
26 | CCCNCCOc1ccncc1NC(=O)c1c[nH]c2c1C(=O)CCCC2.Cl | – | 210 °C
27 | O=C(Nc1ccc(OCCN2CCCC2)cc1)c1c[nH]c2c1C(=O)CCC2 [Compound 90, N-[4-(2-Pyrrolidin-1-ylethoxy)phenyl]-4-oxo-4,5,6,7-tetrahydro-1H-indole-3-carboxamide] | – | 164 to 168 °C
28 | CNCc1ccc(NC(=O)c2c[nH]c3c2C(=O)CCC3)cc1 [Compound 19, N-[4-(Methylaminomethyl)phenyl]-4-oxo-4,5,6,7-tetrahydro-1H-indole-3-carboxamide] | – | 217 to 219 °C
29 | O=C(Nc1ccc(OCCC2CCCCN2)cc1)c1c[nH]c2c1C(=O)CCC2 (centres unmarked) [Compound 94, N-[4-(2-Piperidin-2-ylethoxy)phenyl]-4-oxo-4,5,6,7-tetrahydro-1H-indole-3-carboxamide] | – | 281 to 285 °C
30 | Cl.O=C(Nc1cnccc1OCCN1CCCCC1)c1c[nH]c2c1C(=O)CCC2 | – | 208 to 211 °C
31 | CCCCNCCOc1ccncc1NC(=O)c1c[nH]c2c1C(=O)CCC2.Cl | – | 157 to 159 °C
32 | O=C(Nc1cnccc1OCc1cccnc1)c1c[nH]c2c1C(=O)CCCC2 [Compound 194, N-[4-(Pyrid-3-ylmethoxy)pyrid-3-yl]-4-oxo-1,4,5,6,7,8-hexahydro-cyclohepta[b]pyrrole-3-carboxamide] | – | 241 to 243 °C
33 | O=C(Nc1ccc(OCCNCC2CC2)cc1F)c1c[nH]c2c1C(=O)CCC2 [Compound 72, N-[2-Fluoro-4-(2-Cyclopropylmethylaminoethoxy)phenyl]-4-oxo-4,5,6,7-tetrahydro-1H-indole-3-carboxamide] | – | 247 to 250 °C
34 | O=C(Nc1ccc2c(c1)OCO2)c1c[nH]c2c1C(=O)CCCC2 [Compound 39, N-(1,3-Benzodioxol-5-yl)-4-oxo-1,4,5,6,7,8-hexahydro-cyclohepta[b]pyrrole-3-carboxamide] | – | 210 to 212 °C
35 | COCc1ccc(NC(=O)c2c[nH]c3c2C(=O)CCC3)cc1 [Compound 18, N-[4-(Methoxymethyl)phenyl]-4-oxo-4,5,6,7-tetrahydro-1H-indole-3-carboxamide] | – | 164 to 165 °C
